Reference: patent publication US20170273906A1, “TARGETED LIPOSOMES ENCAPSULATING IRON COMPLEXES AND THEIR USES” (Ramot at Tel-Aviv University Ltd., priority 2014, published 2017)

Experiments:
peritoneal macrophages = assay: Peritoneal macrophage profile following injection after MI (FACS); assay type: in vivo, mouse; conditions: IP one day after MI, three days later
Text: (§1) Twelve week-old female Balb/C mice (20 gr.) were anesthetized with 2% isoflurane, and were surgically opened by left thoractomy through the fourth intercostal space to expose the beating heart. To induce MI, the left main coronary artery was permanently occluded with an intramural suture.
To determine liposomal hemin effect on peritoneal and cardiac macrophages, hemin was formulated in HA-L. Hemin encapsulation efficiency was ˜100% at therapeutic dose levels. Mice were allocated with hemin/HA-L (2 mg hemin/kg body and 50 mg lipid/kg body), empty liposomes (HA-targeted, 50 mg lipid/kg body), free hemin (2 mg/kg body) or saline (100 μl) by intra-peritoneal injection one day after MI. Three days later, mice were euthanized and peritoneal macrophages were aspirated from abdominal cavity. Cells were counted and stained with an anti-mouse F4/80 (as general macrophage marker) and with either PE-conjugated anti-mouse CD86 (as M1 marker) or FITC-conjugated anti-mouse mannose receptor (CD206; as M2 marker). Cells were analyzed by FACS Calibur cytometer using CellQuest™ software.
Following hemin/HA-L (2 mg hemin/kg body and 50 mg lipid/kg body) injection into mice peritoneum (IP), macrophages from the abdominal cavity were isolated and analyzed by flow cytometry.

HO-1 [1] = assay: HO-1 expression in LPS-activated macrophages; assay type: cell-based, mouse; conditions: LPS 24 hours, then three days in culture; FIG. 1E
Method: III. Further, the effect of hemin/HA-LP on TNF-α secretion levels from LPS stimulated RAW264.7 macrophages, on IL-12 cytokine secretion from peritoneal macrophages stimulated with LPS for 24 hours, and expression of HO-1 expression were measured. In addition, the effect of hemin/HA-L on macrophage inflammatory and anti-inflammatory properties was evaluated. First, TNF-α secretion levels from LPS stimulated RAW264.7 macrophages was measured (FIG. 1C, “LP” denoting liposome). […] Next, mouse peritoneal macrophages were stimulated with LPS for 24 hours. After LPS removal, the cells were treated with either hemin/HA-LP, empty HA-LP, free hemin or saline.

COS-7 = assay: Cell viability (XTT and SRB), COS-7; assay type: cell-based; conditions: 24 hours
Method: (§2) For evaluating the effect of Hemin/HA-L on cancer cells, the liposomes prepared as described above were used. The only difference was in the amount of dry liposome forming lipid powder used in the “cancer aspect”. Specifically, in the following anti-cancer aspect, for rehydration of the hemin, higher amounts of the powder were used to reach a liposome concentration of 10-20 mM lipid.
(§3) The impact of hemin/HA-L at high liposome concentrations on cell viability was tested on five cell lines and compared to the same dose of free hemin, as well as to the same liposomal dose of drug-free HA-L.
(§4) Three of the cell lines originated from human cancers: MDA-MB-231 and MCF-7 from breast cancer and NCI/ADR-Res (abbreviated to NAR) from ovarian cancer. The RAW264.7 cell line is from mouse peritoneal macrophages, and the COS-7 cell line is noncancerous. […] MCF-7 is known to be sensitive to chemotherapeutic drugs, whereas NAR is known to be highly resistant to chemotherapeutic drugs, in the multi-drug resistant mechanism operating by the extrusion pumps of the ABC superfamily of transporters.
(§5) The Results of treating the five cell lines with hemin/HA-L, hemin, drug-free HA-L or control (i.e. untreated) for 24 hours, are shown in Tables 2 and 3, for hemin doses (free or liposomal) of 25 μg/ml and 50 μg/ml, respectively. Cell viability was evaluated by two independent methods: XTT and SRB.

NAR xenografts = assay: Mouse tumor model, tumor volume; assay type: in vivo; conditions: tail vein, 3 injections a week apart; 2 mpk hemin and/or 125 mpk lipid; follow up two weeks after last injection; FIG. 17B
Method: The experimental details and design were as follows: Hsd:Athymic Nude Foxn1nu female mice (8 weeks old, 25 gr.) were inoculated with NAR cells (6.5*10^6 cells/100 μl HBSS), to the flank. Treatment was initiated at tumor volumes of 150-180 mm^3. There were three treatment groups and in all three the solvent was HBSS: (1) mice injected with drug-free HA-L^hi at the dose of 125 mpk lipid. (2) mice injected with free hemin at the dose of 2 mpk and (3) mice injected with hemin/HA-L^hi at the respective doses of 2 mpk (hemin) and 125 mpk (lipid). The injections were to the tail vein, and the injection volume was 200 μl. Each mice was given 3 injections spaced a week apart. Follow up was by animal weight and tumor volume (measured by caliper), up to two weeks after the last injection.

RAW264.7 = assay: Cell viability (XTT and SRB), RAW264.7; assay type: cell-based, mouse; conditions: hemin 50 μg/ml, 24 hours
Method: as §2, §3, §4, §5

[2] = system: LPS-activated RAW264.7 cells; assay: In vitro viability assay (XTT/SRB), LPS-activated macrophages; assay type: cell-based, mouse; conditions: hemin dose of 50 μg/ml and liposome dose of 4 mM lipid, 24 hours, XTT; FIG. 7
Method: I. RAW264.7 cells were seeded onto 96 well plates, and the experiments were initiated 24 hours later, at semi-confluency. The regular (serum supplemented) cell growth media was replaced by the same media but containing one of the following treatments: free hemin, drug-free RL-MLV, HA-MLV, hemin-encapsulating RL-MLV and hemin-encapsulating HA-MLV. Wells receiving the regular cell growth media without any addition served as controls. Incubation time was 24 hours, at the end of which the experiment was terminated and cell viability was determined by the XTT or SRB methods. Both methods yielded similar results.
Cell viability was determined using XTT method. […] In addition, cell viability was also determined by the SRB method, which is independent of mitochondrial enzymes (results not shown). Both methods gave similar results.

MDA-MB-231 = assay: Cell viability (XTT and SRB), MDA-MB-231; assay type: cell-based, human; conditions: 24 hours
Method: as §2, §3, §4, §5

[3] = system: Mouse Model of Myocardial Infarction (MI); assay: Histological analysis of infarct size (hematoxylin and eosin), 30 days after MI; assay type: in vivo; conditions: FIG. 13E
Text: as §1
The imaging results of treatment with Hemin/HA-L (FIG. 13A), free hemin (FIG. 13B), empty liposomes (FIG. 13C) and saline (FIG. 13D) were confirmed by histological analysis, 30 days after MI. […] Noticeably, empty liposomes and free hemin treatments were also associated with a decreased scar tissue (by 40% and 43%), compared with saline (FIG. 13E). Overall, the presented findings indicate that hemin/HA-L is a promising agent to modulate and resolve inflammation following MI by enhancing healing and repair processes.

MCF-7 = assay: Cell viability (XTT and SRB), MCF-7; assay type: cell-based, human; conditions: 24 hours
Method: as §2, §3, §4, §5

HO-1 [4] = assay: Intracellular concentration of active HO-1 in NAR cells (commercial kit); assay type: cell-based, human; conditions: hemin 25 μg/ml (free, or encapsulated in 2 mM lipid), 24 hours; FIG. 15
Method: (§6) The experiments were performed in 24-well plates, treatment was for 24 hours, and upon termination the active intracellular HO-1 was determined using a commercial kit and following the kit's instructions. Parallel wells were used to evaluate cell viability using the SRB method. The results are presented in FIG. 14 (average of 6 wells; Statistical significance was evaluated by student t test (two tail, unequal variance) for RL vs. control and for HA-L vs. control. *p<0.05, **p<0.003, ***p<0.0001).
In both cases, as also shown in FIG. 15, cell viability (line crossing open circles) was intact.

NCI/ADR-Res = assay: Cell viability (XTT and SRB), NCI/ADR-Res; assay type: cell-based, human; conditions: 24 hours
Method: as §2, §3, §4, §5
as §6, with “To this end, NCI/ADR-Res (NAR) cells were first tested with drug-free regular liposomes and drug-free HA-L, at three liposome doses—4 mM, 10 mM, and 21 mM—lipid, with untreated cells serving as controls. The experiments” for “The experiments”

[5] = system: LPS stimulated RAW264.7 macrophages; assay: TNF-α secretion from LPS stimulated macrophages; assay type: cell-based, mouse; conditions: hemin dose of 50 μg/ml, FIG. 1C
Method: III. Further, the effect of hemin/HA-LP on TNF-α secretion levels from LPS stimulated RAW264.7 macrophages, on IL-12 cytokine secretion from peritoneal macrophages stimulated with LPS for 24 hours, and expression of HO-1 expression were measured. In addition, the effect of hemin/HA-L on macrophage inflammatory and anti-inflammatory properties was evaluated. First, TNF-α secretion levels from LPS stimulated RAW264.7 macrophages was measured (FIG. 1C, “LP” denoting liposome). […] Next, mouse peritoneal macrophages were stimulated with LPS for 24 hours. After LPS removal, the cells were treated with either hemin/HA-LP, empty HA-LP, free hemin or saline. […] The anti-inflammatory activity of hemin was evaluated in vitro, in the established cell line of mouse peritoneal macrophages RAW264.7. Anti-inflammatory treatment was measured by reduction in secretion of the pro-inflammatory cytokine TNF-α, in LPS-activated macrophages.

hemin [Free hemin]
M2 (anti-inflammatory) peritoneal macrophages (peritoneal macrophages; 2 mg hemin/kg body and/or 50 mg lipid/kg body, FIG. 8C): 6.4±1.5%
M2/M1, peritoneal macrophages (peritoneal macrophages; FIG. 8D): 0.08±0.03
HO-1 expression within macrophages (HO-1 [1]): highest HO-1 expression
Cell Viability (COS-7; hemin 25 μg/ml): 99(±3) %
Cell Viability (COS-7; hemin 50 μg/ml): 91(±3) %
tumor volume (NAR xenografts): slight decrease
Cell Viability (RAW264.7): 119(±17) %
Cell Viability [2]: did not significantly affected cell viability
Cell Viability (MDA-MB-231; hemin 25 μg/ml): 92(±13) %
Cell Viability (MDA-MB-231; hemin 50 μg/ml): 91(±8) %
reduction of infarct size (scar tissue) compared with saline [3]: 43%
Cell Viability (MCF-7; hemin 25 μg/ml): 104(±4) %
Cell Viability (MCF-7; hemin 50 μg/ml): 108(±5) %
intracellular levels of active HO-1 (HO-1 [4]): small, but significant increase
cell viability (SRB) (NCI/ADR-Res; free hemin 25 μg/ml or drug-free HA-L 2 mM lipid, FIG. 15): intact
Cell Viability (NCI/ADR-Res; hemin 25 μg/ml): 120(±7) %
Cell Viability (NCI/ADR-Res; hemin 50 μg/ml): 110(±6) %
TNF-α secretion [5]: no effect
TNF-α secretion ([5]; listed as free hemin): high levels of TNF-α
